Laboratory results: PMC6658782, “The Novel Arylamidine T-2307 Selectively Disrupts Yeast Mitochondrial Function by Inhibiting Respiratory Chain Complexes” (Antimicrobial Agents and Chemotherapy, 2019)
Converted amounts (≈) assume the structure as drawn.

Experiments:
C. albicans cells = settings: cited from earlier work
S. cerevisiae cells = assay: Accumulation of T-2307 in S. cerevisiae cells; type: cell-based, Saccharomyces cerevisiae
[1] = tested on: isolated yeast mitochondria; assay: Mitochondrial oxygen consumption (MitoXpress probe); type: biochemical, Saccharomyces cerevisiae
Procedure: S. cerevisiae from frozen stock (−80°C) was inoculated into yeast extract-peptone-glucose (YPD) medium (1% yeast extract, 2% peptone, and 2% glucose) and grown for 24 h at 30°C. The cultured cells were subcultured into yeast extract-peptone-galactose (YPGal) medium (1% yeast extract, 2% peptone, 2% galactose, and 0.1% glucose) and incubated overnight with continuous shaking at 30°C. When the optical density at 600 nm reached approximately 1.0, the cells were collected by centrifugation (3,000 × g at room temperature for 5 min). Intact mitochondria were isolated as per a previously described protocol ([35]) with minor modifications as follows. Yeast cells were converted to spheroplasts by incubation with Zymolyase-20T (Nacalai Tesque, Inc., Kyoto, Japan) (4 mg of Zymolyase-20T/g [wet weight] of cells) and disrupted using a Dounce homogenizer. The crude mitochondrial fraction was isolated by differential centrifugation ([35]). […]. The mitochondrial protein concentration was determined using the DC protein assay (Bio-Rad Laboratories, Inc., Hercules, CA, USA) following the manufacturer’s instructions. The mitochondrial stock solution was maintained on ice during the oxygen consumption experiment.
The mitochondrial oxygen consumption was measured using a phosphorescent oxygen-sensitive probe, MitoXpress-Xtra (Agilent Technologies, Santa Clara, CA, USA), as described previously ([16], [36]). Succinate was used as a respiratory substrate in this assay. […] A microplate reader, PHERAstar Plus (BMG Labtech GmbH, Ortenberg, Germany), was used to read. The time-resolved fluorescence protocol was set to read the plate at 1.5-min intervals for 60 min at an excitation wavelength of 337 nm, an emission wavelength of 665 nm, a delay time of 40 μs, and a gate time of 100 μs at 30°C.
[…]. […] For quantitative assessment, OCR was determined from the slope of the initial 7.5 min. OCR is expressed as micromolar of O2 per minute per milligram of protein.
The drug concentration was expressed as micromoles per milligram of protein. […]

[2] = molecular target: T1, respiratory chain complex II + III (Candida albicans, UniProt A0A1D8PHA3+A0A1D8PJX3+P0C8L0); assay: Respiratory chain enzymatic activity, complexes II plus III, C. albicans; type: biochemical; settings: C. albicans mitochondria; read-out: IC50 ± SD, Complex II + III
T1 sequence (P0C8L0 1-387): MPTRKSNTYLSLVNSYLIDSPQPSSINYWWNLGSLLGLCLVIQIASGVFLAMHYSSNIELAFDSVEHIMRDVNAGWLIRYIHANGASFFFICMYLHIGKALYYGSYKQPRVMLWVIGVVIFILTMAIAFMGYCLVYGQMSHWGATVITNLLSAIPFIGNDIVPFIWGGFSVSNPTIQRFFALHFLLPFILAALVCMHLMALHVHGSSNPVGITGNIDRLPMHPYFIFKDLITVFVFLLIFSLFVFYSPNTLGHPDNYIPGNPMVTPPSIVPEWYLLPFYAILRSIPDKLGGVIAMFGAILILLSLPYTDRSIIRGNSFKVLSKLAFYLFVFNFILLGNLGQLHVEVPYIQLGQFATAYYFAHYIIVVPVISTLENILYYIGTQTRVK
T1 sequence (A0A1D8PHA3 43-288): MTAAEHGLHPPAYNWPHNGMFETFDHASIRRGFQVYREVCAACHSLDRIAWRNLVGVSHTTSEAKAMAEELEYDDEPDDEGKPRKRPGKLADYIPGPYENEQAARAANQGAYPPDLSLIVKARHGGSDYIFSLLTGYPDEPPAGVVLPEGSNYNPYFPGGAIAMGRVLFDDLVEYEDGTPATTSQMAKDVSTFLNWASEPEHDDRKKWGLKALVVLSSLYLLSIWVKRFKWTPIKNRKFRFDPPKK
T1 sequence (A0A1D8PJX3 30-213): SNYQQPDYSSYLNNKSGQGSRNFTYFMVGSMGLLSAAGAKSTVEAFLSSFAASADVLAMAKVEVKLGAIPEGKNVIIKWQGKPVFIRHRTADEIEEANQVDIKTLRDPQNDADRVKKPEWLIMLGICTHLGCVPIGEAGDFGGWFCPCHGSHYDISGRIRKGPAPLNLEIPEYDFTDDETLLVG

S. cerevisiae = settings: cited from earlier work
rat liver mitochondria = tested on: rat liver mitochondria; design: method as in PMID 22948882; settings: cited from earlier work
Saccharomyces cerevisiae = assay: Intracellular ATP levels in yeast (luminescence assay); type: cell-based
Procedure: Intracellular ATP levels were measured using a previously described method with the following modifications ([25]). S. cerevisiae was grown overnight in a semisynthetic medium (per liter: 20 g of lactate, 0.5 g of glucose, 3 g of yeast extract, 1 g of KH2PO4, 1 g of NH4Cl, 0.5 g of CaCl2·2H2O, 0.5 g of NaCl, and 0.6 g of MgCl2·6H2O; adjusted to pH 5.5 with NaOH). The cells were harvested during the logarithmic-growth phase by centrifugation (3,000 × g at room temperature for 5 min). They were then washed and resuspended in distilled water. The suspension was diluted in a semisynthetic medium to yield 1 × 10^6 cells/ml. After 5 min of incubation at 30°C, T-2307 and antimycin A were added to the suspension. Further, the cells were incubated for 8 h at 30°C. Subsequently, the cells were collected by centrifugation (4,200 × g at 4°C for 5 min). After washes performed with phosphate-buffered saline (PBS; pH 7.2), the cells were resuspended in PBS and diluted to yield 1 × 10^6 cells/ml. ATP levels were measured using the BacTiter-Glo microbial cell viability assay (Promega, Madison, WI, USA), following the manufacturer’s instructions. Luminescence was measured using a microplate reader POLARstar Optima (BMG Labtech GmbH). To determine the viable cell counts, the cell suspension was diluted with PBS and spread on YPD agar. After a 2-day incubation at 30°C, colonies were counted. The intracellular ATP level is expressed as relative light units (RLU)/CFU.

SMILES: N=C(N)c1ccc(OCCCC2CCN(CCCOc3ccc(C(=N)N)cc3)CC2)cc1 [T-2307]
- concentration in cells relative to extracellular medium (C. albicans cells): > 3,000 fold
- concentration in cells relative to extracellular medium (S. cerevisiae cells): approximately 6,000 fold
- effect on mitochondrial oxygen consumption rate (OCR) [1]: dose-dependent decrease
- IC50 [2]: 220 ± 55 µM
- MIC reported previously (S. cerevisiae): 2 nM (≈ 0.875 ng/mL)
- effect on the MMP and on respiration in rat liver mitochondria (rat liver mitochondria): little effect
- concentration that significantly decreased intracellular ATP levels (Saccharomyces cerevisiae): ≥ 0.01 µM
- reduction in intracellular ATP level (Saccharomyces cerevisiae): ~80%
- reduction in intracellular ATP levels (Saccharomyces cerevisiae): > 50%
